The conditions of data set [1]: cited from earlier work.
Data set [2] is described as follows: In vitro skin permeation and penetration of PEP005, flow through diffusion cells. The class given is in vitro ADME, pig. The source says: The in vitro skin permeation and penetration of PEP005 was investigated with various types of occlusion dressings, using flow through diffusion cells. Dressings were applied immediately (without formulation drying), as well as after the formulation had dried. Additionally, PEP005 might also be absorbed into the occlusion dressing, which also was investigated.
Methods: The in vitro permeation and penetration of PEP005 into pig ear skin was studied using PermeGear® flow through diffusion cells (n=6 per formulation). The skin diffusion experiment was allowed to proceed for 21 hours into a recipient phase consisting of 0.04 M isotonic phosphate buffer pH 7.4. Samples from the different skin layers and recipient phase were collected in order to determine flux and skin distribution of PEP005. The samples were analysed by LC-MS/MS.
The test formulation used is an aqueous based gel formulation containing; PEP005 0.5 mg/g, Benzyl Alcohol 9 mg/g, Isopropanol 300 mg/g, Citric acid 5.4 mg/g, Sodium Citrate dihydrate 1.4 mg/g, Hydroxyethyl Cellulose 15 mg/g and water up to 1 g, with a formulation pH of 3.2.
Full thickness skin from pig ears was used in the study. The ears were kept frozen at −18° C. until use. Before the experiment, the ears were placed in a refrigerator (2-8° C.) for slow defrosting. The hairs were removed using a veterinary hair trimmer. The skin was cleaned for subdermal fat using a scalpel, and two pieces of skin were cut from each ear. The pieces of skin were refrozen and kept for no longer than 4 weeks. […]
The used PermeGear® automated system incorporate nine flow through diffusion cells (1-9) made of clear glass, in which the donor and receptor chambers were separated by a diffusion membrane and held together by a pinch clamp. […] The specific volume was measured and registered for each cell. […]
Prior to application of the formulation, the experiment was started by starting the pump. […] The formulation was applied using a glass spatula and the residual amount of formulation was determined, thus giving the actual amount of formulation applied to the skin. […]

In data set [3] the test system is sBCC lesion on the trunk or extremities. Format: in vivo. From the text:
The primary objective of the clinical trial was to evaluate the safety of PEP005 Gel, 0.05% when administered for up to 3 consecutive days application (Day 1, 2 and 3), to a sBCC lesion on the trunk and extremities.
Another objective of the clinical trial was to evaluate the efficacy of PEP005 Gel, 0.05% when administered for up to 3 consecutive days application (Day 1, 2 and 3), to a sBCC lesion on the trunk and extremities.
This was a phase 2, multi-centre, parallel group, open-label trial to evaluate the safety and efficacy of PEP005 (ingenol mebutate) Gel, 0.05%, when administered for up to 3 consecutive days (Day 1, 2 and 3) to a sBCC lesion on the trunk or extremities.
The trial population was planned to include 75 subjects aged at least 18 years with a primary diagnosed and histologically confirmed sBCC located on the trunk or extremities which was suitable for excision.
Eligible subjects were randomised to receive physician-applied trial medication in one of the following 3 treatment groups:
Group 1) PEP005 Gel, 0.05%, up to 3 consecutive days treatment, occluded with an aluminium disk;
Group 2) PEP005 Gel, 0.05%, up to 3 consecutive days treatment, occluded with an Opsite™ disk;
Group 3) PEP005 Gel, 0.05%, up to 3 consecutive days treatment, not occluded.
Eligible subjects received PEP005 Gel on Days 1, 2 and 3. […] If tolerability to trial medication was maintained, the subjects received all 3 doses of PEP005 Gel, 0.05%, regardless of whether the sBCC lesion being treated was resolved or not.
Subsequent follow-up visits for safety assessments were made on Days 2, 3 (as applicable), 4 (as applicable), 8, 15, 29, 57, 85 and 120. Histological and clinical efficacy assessments were only conducted at Day 120. If trial medication was not administered on Day 2 a follow-up visit on Day 3 or 4 was not necessary, unless clinically indicated. If trial medication was not administered on Day 3 a follow-up visit on Day 4 was not necessary, unless clinically indicated.
The volume of PEP005 Gel applied to the selected treatment area was 30 μl for lesions with the longest axes of between 4-10 mm and 50 μl for lesions with the longest axes of between 11-15 mm.
The actual treatment analysis set included the same subjects as in the full analysis set, i.e. 75 randomised subjects. However, 2 subjects who received the wrong treatment were assigned to their actual treatment group, i.e. PEP005 Aluminium Disk.
Thus, in the actual treatment analysis set 27 subjects were included in PEP005 Aluminium Disk group and 24 subjects both in PEP005 Opsite™ Disk group and PEP005 No Occlusion group.

Where two headings read alike, the source gives them in different places.

Regarding `C/C=C(/C)C(=O)O[C@H]1C(C)=C[C@]23C(=O)[C@@H](C=C(CO)[C@@H](O)[C@]12O)[C@H]1[C@@H](C[C@H]3C)C1(C)C` [PEP005, 2-methyl-2(Z)-butenoic acid (1aR,2S,5R,5aS,6S,8aS,9R,10aR)-5,5a-dihydroxy-4-(hydroxymethyl)-1,1,7,9-tetramethyl-11-oxo-1a,2,5,5a,6,9,10,10a-octahydro-1H-2,8a-methanocyclopenta[a]cyclopropa[e]cyclodecen-6-yl ester], in data set [1] (alcohols such as benzyl alcohol and isopropyl alcohol), the Stability in alcohols entry was “good stability”. The “Stability at low pH” value in data set [1] (low pH) is “good stability”. Besides, the “Increase in penetrated amount of PEP005 after occlusion compared to the non-occluded treatment” value in data set [2] (Study PMPN1028, all dressings) was 2-6 fold. Further, in data set [2] (aluminium foil, parafilm, Coloplast vinyl film and Compeed, Study PMPN1028), the “Increase in permeation of PEP005 compared to the non-occluded treatment” value is given as 9-10 fold. Also, in data set [2] (semi-occlusive dressing Flexifix, Study PMPN1028), the “Increase in skin permeation compared to the non-occluded treatment” value is on record as 3 fold. In data set [3] (Aluminium Disk group (n = 27)), the “Number of subjects who received 1 dose (dosing continued only if tolerated)” value (“Number of subjects who received 1 dose” below) worked out at 22, the “Number of subjects who received 2 doses (dosing continued only if tolerated)” value (“Number of subjects who received 2 doses” below) is on record as 2, the “Number of subjects who received 3 doses (dosing continued only if tolerated)” value (“Number of subjects who received 3 doses” for short) was found to be 13 and the “Subjects who received 1 dose (dosing continued only if tolerated)” value is listed as 81.5%. In addition, in data set [3] (Aluminium Disk group (n = 27)), the “Subjects who received 2 doses (dosing continued only if tolerated)” value is 7.4% and the “Subjects who received 3 doses (dosing continued only if tolerated)” value amounted to 11.1%. For the same compound, in data set [3] (No Occlusion group (n = 24)), the “Number of subjects who received 1 dose” value stood at 0, the “Number of subjects who received 2 doses” value was 1, the “Number of subjects who received 3 doses” value is 23 and the “Subjects who received 1 dose (dosing continued only if tolerated)” value came out at 0.0%. Moreover, in data set [3] (No Occlusion group (n = 24)), the “Subjects who received 2 doses (dosing continued only if tolerated)” value came to 4.2% and the “Subjects who received 3 doses (dosing continued only if tolerated)” value is 95.8%. In data set [3] (OpSite Disk group (n = 24)), the “Number of subjects who received 1 dose” value is reported as 0, the “Number of subjects who received 2 doses” value was found to be 5, the “Number of subjects who received 3 doses” value is given as 19 and the “Subjects who received 1 dose (dosing continued only if tolerated)” value is 0.0%. Moreover, in data set [3] (OpSite Disk group (n = 24)), the “Subjects who received 2 doses (dosing continued only if tolerated)” value is 20.8% and the “Subjects who received 3 doses (dosing continued only if tolerated)” value is listed as 79.2%.

These data come from patent US20130251782A1, “TOPICAL APPLICATION OF INGENOL MEBUTATE WITH OCCLUSION” (LEO LABORATORIES LIMITED, priority 2012, published 2013).
